Structures can show the parent of a compound that is named as a salt.
Key:
asthmatic patients = assay: Preliminary clinical trial of bronchodilator efficacy (FEV1 by spirometry) in asthmatic patients; type: in vivo; conditions: single dose of 1 μg, inhalation
Protocol: The bronchodilator efficacy of TA 2005, defined as increase from baseline in the forced expiratory volume over one second (FEV1), measured by spirometry, has been assessed in a preliminary clinical trial in a small group of asthmatic patients.
The results have shown that already following administration of a single dose of 1 μg a mean and persistent increase of FEV1 approximately 30% greater than baseline can be obtained.

[1] = test system: rat lung oedema induced by Sephadex; assay: Sephadex-induced lung oedema model; type: in vivo; conditions: intratracheal; for non effective dose on Sephadex-induced lung oedema: from dose-response curves
Protocol: The rat lung oedema induced by Sephadex is a model which leads to inflammatory cells infiltration and long-lasting interstitial oedema. […] The test substances were suspended in saline and administered intratracheally suitably diluted in the Sephadex suspension. 24 h post-administration, the animals were sacrificed and the lungs removed and weighted. Percent inhibition of the Sephadex-induced oedema was then determined.

[2] = test system: isolated tracheal strips from ovalbumin-sensitised guinea pigs; assay: β2-desensitisation in isolated tracheal strips from ovalbumin-sensitised guinea pigs (carbachol-induced contraction); parameters: species or system guinea pig
Protocol: A prolonged use of β2-agonists results in down-regulation of pulmonary β2-adenoceptors. This phenomenon can be counteracted by concomitant treatment with a corticosteroid.
In the present study tracheal strips obtained from ovalbumin-sensitised guinea-pigs (100 mg/kg ip and 100 mg/kg sc, 20 days before sacrifice) were submitted to β2-desensitisation by contact for two 20-min periods with a supra-maximal concentration of salbutamol (5*10^−6 M). In some experiments guinea pigs 24 and 1.5 h before sacrifice received 50 mg/kg ip of budesonide.

[3] = test system: isolated guinea pig tracheal strips; assay: Carbachol-induced contraction in isolated guinea pig tracheal strips
Excerpt: The pharmacological interaction between the β2-adrenoceptor agonist TA 2005 and the M3-receptor antagonist tiotropium bromide was investigated in isolated guinea pig tracheal strips contracted with carbachol.

[4] = test system: acetylcholine-induced bronchoconstriction in guinea-pigs; assay: Acetylcholine-induced bronchoconstriction in guinea pigs (Konzett and Rossler); type: in vivo, guinea pig; conditions: for ED50, acetylcholine-induced bronchoconstriction: acetylcholine 20 μg/kg iv, superfused onto tracheal mucosa
Protocol: Guinea pigs were prepared as originally described by Konzett and Rossler, Naunyn-Schmiedeberg's Arch Pharmacol, 1940; 195: 556-557.
Bronchoconstriction was induced by intravenous administration of acetylcholine (20 μg/kg). The antibronchospastic activity of different concentrations of tiotropium (0.1 to 30 pmol) or TA 2005 (0.3 to 100 pmol), alone or in combination, was investigated.

healthy male volunteers = conditions: single inhaled doses 0.8-12.8 μg, cited from earlier work
[5] = test system: bronchoconstriction induced by acetaldehyde in the guinea pig; assay: Acetaldehyde-induced bronchoconstriction, histamine release and plasma extravasation in anaesthetized ventilated guinea pigs; type: in vivo
Protocol: Pharmacol., 362:184-189, 2000; as well as in a model of acetaldehyde induced bronchoconstriction (Berti et al., Arzneim-Forsch/Drug Res 1994; 44: 323-326).
The protective activity of TA 2005 (0.1 to 10 pmol), formoterol (0.3 to 30 pmol) or budesonide (31.25 to 500 nmol) was determined after intratracheal superfusion alone or in combination.

COc1ccc(CC(C)NCC(O)c2ccc(O)c3[nH]c(=O)ccc23)cc1 [TA 2005, 8-Hydroxy-5-[(1R)-1-hydroxy-2-[[(1R)-2-(4-methoxyphenyl)-1-methylethyl]amino]ethyl-2(1H)-quinolinone hydrochloride salt]
mean and persistent increase of FEV1 greater than baseline (asthmatic patients): approximately 30% | non effective dose on Sephadex-induced lung oedema [1]: 0.01 nmol/kg | loss of potency in relaxing the carbachol-induced contraction ([2]; after β2-desensitisation with salbutamol 5*10^−6 M): about 3 times | potentiation of relaxing effects ([2]; after β2-desensitisation, budesonide pretreatment 50 mg/kg ip 24 and 1.5 h before sacrifice): about 6 times | inhibition at 1 pM ([3]; Cavia porcellus, TA 2005 10^−12 M): 29.3 ± 6.1% | inhibition of the effect of acetylcholine ([4]; 3 pmol of TA 2005 in the absence of tiotropium): 18% | ED50, acetylcholine-induced bronchoconstriction [4]: 16.7 pmol | maximum no adverse effect dose (healthy male volunteers; metered dose nebuliser system): 9.6 µg | effect on heart rate, tremor, pulmonary function and plasma potassium (healthy male volunteers): dose-dependent increase in heart rate, tremor and pulmonary function and a decrease in plasma potassium

CCCC1O[C@@H]2C[C@H]3[C@@H]4CCC5=CC(=O)C=C[C@]5(C)[C@H]4[C@@H](O)C[C@]3(C)[C@]2(C(=O)CO)O1 (stereo partly shown) [budesonide]
dose of budesonide needed to significantly inhibit Sephadex-induced lung oedema ([1]; budesonide alone (absence of TA 2005)): 240 nmol/kg | dose of budesonide significantly inhibiting Sephadex-induced lung oedema ([1]; in the presence of TA 2005 (0.01 nmol/kg)): 15 nmol/kg | dose of budesonide giving significant reduction in Sephadex-induced lung weight increase ([1]; in the presence of formoterol (0.1 nmol/kg)): 120 nmol/kg | ED50, bronchoconstriction ([5]; budesonide alone, intratracheal superfusion): 396 nmol | fold reduction of budesonide ED50, bronchoconstriction ([5]; combined with 0.1 pmol of TA 2005): 5.3 fold | fold reduction of budesonide ED50, bronchoconstriction ([5]; combined with 0.3 pmol of TA 2005): 14.3 fold | fold reduction of budesonide ED50, bronchoconstriction ([5]; combined with 0.3 pmol of formoterol): 3.0 fold | fold reduction of budesonide ED50, bronchoconstriction ([5]; combined with 1 pmol of formoterol): 5.9 fold

COc1ccc(CC(C)NCC(O)c2ccc(O)c(NC=O)c2)cc1 (stereo not shown) [formoterol]
effect on Sephadex-induced lung oedema ([1]; 24 h post-administration, TA 2005 0.001-0.1, formoterol 0.01-2, budesonide 15-480 nmol/kg): dose-dependent remission | non effective dose on Sephadex-induced lung oedema [1]: 0.1 nmol/kg | decline of anti-bronchoconstrictive effect after 240 min ([5]; 30 pmol, intratracheal superfusion): ~50% | effect on AcCHO effects (bronchoconstriction, histamine release, plasma extravasation) ([5]; intratracheal superfusion, TA 2005 0.1-10 pmol, formoterol 0.3-30 pmol, budesonide 31.25-500 nmol): potently antagonised

C[N+]1(C)[C@@H]2C[C@@H](OC(=O)C(O)(c3cccs3)c3cccs3)C[C@H]1[C@@H]1O[C@@H]12 [tiotropium bromide]
inhibition of carbachol-induced contraction ([3]; tiotropium bromide 3*10^−10 M): 17.1±2.2% | potency relative to TA 2005 ([4]; P<0.001): 5.2 fold | ED50, acetylcholine-induced bronchoconstriction [4]: 3.2 pmol | effect on acetylcholine-induced bronchoconstriction ([4]; tiotropium 0.1-30 pmol, TA 2005 0.3-100 pmol, alone): dose-dependently antagonize

Reference: patent US20070020190A1, “Medicament comprising a highly potent long-lasting beta2-agonist in combination with other active ingredients” (priority 2003, published 2007)
